Source: article PMC7812675 (ACS Medicinal Chemistry Letters, 2020)
Where two headings read alike, the source gives them in different places. One block for each compound: values may come before it. Square brackets hold non-standard residues; d marks the D form. Peptide text beside a SMILES is read from it. Hyp = O=C(O)[C@@H]1C[C@@H](O)CN1

Assays:
[1] = target: T1, MsCI4 (MsCI4WW/FF) (Magnetospirillum gryphiswaldense, UniProt A4TVL0, W36F/W59F); conditions: MANT-uracil reporter
[2] = target: T2, VHL/EloB/EloC complex (VBC) (Homo sapiens, UniProt P40337); test: Competitive MST assay, unlabeled peptides against VHL and FAM reporter peptide; format: binding; conditions: ± confidence interval
T2 construct: VHL54-213 fused to an N-terminal TwinStrep-tag; TwinStrep-tag (TEV site) (N, cleaved yes); made in house; host or cells: E. coli BL21(DE3)

[3] = target: T3, human CRBN (hCRBN) thalidomide binding domain (hTBD) (Homo sapiens, UniProt Q96SW2); test: Initial fluorescence (quenching) titration of hTBD against BODIPY-uracil; conditions: initial fluorescence measurement, 200 nM BODIPY-uracil
T3 construct: 319-425; GST (thrombin site) (N, cleaved yes); made in house; host or cells: E. coli Rosetta 2(DE3)pLysS

[4] = target: T4, Magnetospirillum gryphiswaldense cereblon isoform 4 (MsCI4) (Magnetospirillum gryphiswaldense, UniProt A4TVL0); format: binding; conditions: initial fluorescence measurement, 200 nM BODIPY-uracil
T4 construct: made in house
T4 sequence (A4TVL0 1-124): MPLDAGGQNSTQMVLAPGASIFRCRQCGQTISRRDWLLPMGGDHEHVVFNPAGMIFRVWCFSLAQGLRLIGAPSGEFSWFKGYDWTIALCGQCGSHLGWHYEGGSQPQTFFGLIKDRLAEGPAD

[5] = target: T3, human CRBN (hCRBN) thalidomide binding domain (hTBD); test: Competitive MST assay with BODIPY-uracil reporter and hTBD; conditions: for binding to hTBD in the MST assay (words; n.b., no binding): 10 µM hTBD/200 nM BODIPY-uracil
[6] = target: T1, MsCI4 (MsCI4WW/FF); conditions: cited from earlier work
[7] = target: T4, Magnetospirillum gryphiswaldense cereblon isoform 4 (MsCI4); format: binding; conditions: competitive DMSO titration
[8] = IC50, FAM-11mer competition, 570 nM VBC/20 nM FAM-11mer reporter
[9] = IC50, FAM-19mer competition, 80 nM VBC/20 nM FAM-19mer reporter

Compound: O=C1CN(/N=C/c2ccccc2)C(=O)N1 [1-Benzylidene-aminohydantoin, 1-benzylideneaminohydantoin]
binding to MsCI4 in the FRET assay (words) [1]: absence of affinity

Compound: O=C1CN(/N=C/c2ccccc2[N+](=O)[O-])C(=O)N1 [2-NP-AHD, 1-(2-nitrobenzylideneamino)hydantoin]
binding to MsCI4 in the FRET assay (words) [1]: absence of affinity

IC50 [2, 8]: 1800 ± 810 nM | IC50 [2, 9]: 1420 ± 950 nM
Compound: CC[C@H](C)[C@H](NC(=O)[C@H](Cc1ccc(O)cc1)NC(=O)[C@@H]1C[C@@H](O)CN1C(=O)[C@H](C)NC(=O)[C@H](CC(C)C)NC(=O)[C@H](C)NC(=O)[C@H](CCC(=O)O)NC(=O)[C@@H](N)CC(=O)O)C(=O)N1CCC[C@H]1C(=O)N[C@@H](CCSC)C(=O)N[C@@H](CC(=O)O)C(=O)O [11mer] (H-DEALA[Hyp]YIPMD-OH)

IC50 [2, 8]: 803 ± 450 nM | IC50 [2, 9]: 572 ± 260 nM
Compound: CC[C@H](C)[C@H](NC(=O)[C@H](Cc1ccc(O)cc1)NC(=O)[C@@H]1C[C@@H](O)CN1C(=O)[C@H](C)NC(=O)[C@H](CC(C)C)NC(=O)[C@H](C)NC(=O)[C@H](CCC(=O)O)NC(=O)[C@@H](N)CC(=O)O)C(=O)N1CCC[C@H]1C(=O)N[C@@H](CCSC)C(=O)N[C@@H](CC(=O)O)C(=O)N[C@@H](CC(=O)O)C(=O)N[C@@H](CC(=O)O)C(=O)N[C@@H](Cc1ccccc1)C(=O)N[C@@H](CCC(N)=O)C(=O)N[C@@H](CC(C)C)C(=O)N[C@@H](CCCNC(=N)N)C(=O)N[C@@H](CO)C(=O)N[C@@H](Cc1ccccc1)C(=O)O [19mer]

Kd [3]: 11000 nM | Kd [4]: 3800 nM
Compound: CC1=CC(C)=[N+]2C1=C(CCC(=O)NCCn1ccc(=O)[nH]c1=O)c1c(C)cc(C)n1[B-]2(F)F [BODIPY-uracil]

Compound: O=C1CN(/N=C/c2ccc([N+](=O)[O-])o2)C(=O)N1 [Nitrofurantoin, nitrofurantoin]
binding to hTBD in the MST assay (words; n.b., no binding) [5]: did not show any binding | binding to MsCI4 in the FRET assay (words) [1]: do not show binding | binding to MsCI4 in the FRET assay (words) ([1]; listed as nitrofurantoin): did not show any binding

Compound: O=c1ccn([C@@H]2O[C@H](COP(=O)(O)O)[C@@H](O)[C@H]2O)c(=O)[nH]1 [UMP, uridine-5′-monophosphate]
binding to hTBD in the MST assay (words; n.b., no binding) [5]: abolished binding completely

Compound: O=c1ccn([C@@H]2O[C@H](CO)[C@@H](O)[C@H]2O)c(=O)[nH]1 [Uridine, uridine]
affinity to MsCI4 in the FRET assay [6]: high affinity

Compound: DMSO
Ki as corresponding concentration of DMSO, hTBD ([5]; competitive DMSO titration): 1.0 % (v/v) | Ki as corresponding concentration of DMSO, MsCI4 [7]: 0.08 % (v/v)
